Molecular target: TYK2 (Homo sapiens, UniProt P29597)
Assay: TYK2 protein degradation in NOMO-1 cells by immunoblotting
Assay type: cell-based
Parameters: endogenous in cells
Settings: NOMO-1 cells
Procedure: NOMO-1 cells were treated with CPD-155, CPD-157, and CPD-158 at 0.1, 1, 10, 100 and 1000 nM concentrations for 16 hours. […] Data shown that CPD-155, CPD-157, and CPD-158 are very potent at the reduction protein levels of TYK2.
MOLT-4 or NOMO-1 cells were cultured at 37° C. with 5% CO2 in RPMI 1640 Medium supplemented with 10% fetal bovine serum. Cells were authenticated using the short tandem repeat (STR) assays. Mycoplasma test results were negative.
Cultured cells were washed with cold PBS once and lysed in cold RIPA buffer supplemented with protease inhibitors and phosphatase inhibitors (Beyotime Biotechnology). The solutions were then incubated at 4° C. for 30 minutes with gentle agitation to fully lyse cells. Cell lysates were centrifuged at 13,000 rpm for 10 minutes at 4° C. and pellets were discarded. Total protein concentrations in the lysates were determined by BCA assays (Beyotime Biotechnology). Cell lysates were mixed with Laemmli loading buffer to 1× and heated at 99° C. for 5 min. Proteins were resolved on SDS-PAGE and visualized by chemiluminescence. Images were taken by a ChemiDoc MP Imaging system (Bio-Rad). Protein bands were quantitated using the accompanied software provided by Bio-Rad.

TYK2, sequence (P29597 whole entry): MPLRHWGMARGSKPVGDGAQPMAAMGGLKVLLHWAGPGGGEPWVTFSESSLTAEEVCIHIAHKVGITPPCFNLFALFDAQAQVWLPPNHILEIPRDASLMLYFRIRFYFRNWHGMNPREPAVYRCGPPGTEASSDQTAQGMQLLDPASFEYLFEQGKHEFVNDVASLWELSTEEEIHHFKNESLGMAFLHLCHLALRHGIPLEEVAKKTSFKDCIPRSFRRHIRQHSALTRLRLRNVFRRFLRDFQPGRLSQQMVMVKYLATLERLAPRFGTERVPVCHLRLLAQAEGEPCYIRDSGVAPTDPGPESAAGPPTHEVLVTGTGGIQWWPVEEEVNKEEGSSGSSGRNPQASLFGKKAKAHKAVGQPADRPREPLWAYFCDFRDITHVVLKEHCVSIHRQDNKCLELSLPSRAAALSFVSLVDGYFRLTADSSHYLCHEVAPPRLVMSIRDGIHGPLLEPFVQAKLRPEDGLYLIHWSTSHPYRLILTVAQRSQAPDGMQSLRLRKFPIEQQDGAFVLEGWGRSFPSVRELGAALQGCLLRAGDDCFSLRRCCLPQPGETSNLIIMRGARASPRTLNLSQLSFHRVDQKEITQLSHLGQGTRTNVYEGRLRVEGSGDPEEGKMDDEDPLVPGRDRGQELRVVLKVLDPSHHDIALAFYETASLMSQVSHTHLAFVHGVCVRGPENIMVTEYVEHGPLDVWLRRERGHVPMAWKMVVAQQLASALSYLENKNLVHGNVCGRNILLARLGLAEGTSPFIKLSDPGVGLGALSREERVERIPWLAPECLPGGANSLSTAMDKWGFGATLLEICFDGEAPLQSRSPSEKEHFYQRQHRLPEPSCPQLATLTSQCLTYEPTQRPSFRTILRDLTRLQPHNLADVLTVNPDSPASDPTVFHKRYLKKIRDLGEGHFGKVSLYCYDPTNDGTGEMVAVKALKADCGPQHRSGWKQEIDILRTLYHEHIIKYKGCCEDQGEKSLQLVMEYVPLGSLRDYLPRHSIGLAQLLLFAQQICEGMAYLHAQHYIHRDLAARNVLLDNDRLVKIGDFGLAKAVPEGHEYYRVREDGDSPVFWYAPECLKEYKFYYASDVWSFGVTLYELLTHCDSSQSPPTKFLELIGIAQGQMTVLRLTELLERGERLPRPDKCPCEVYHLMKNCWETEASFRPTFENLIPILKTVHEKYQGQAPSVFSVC

SMILES	TYK2 Degradation (NOMO-1, 10 nM)	TYK2 Degradation (NOMO-1, 100 nM)
CNC(=O)c1nnc(Nc2ccc(C(=O)NCCCCNc3cccc4c3C(=O)N(C3CCC(=O)NC3=O)C4=O)cn2)cc1Nc1cccc(-c2ncn(C)n2)c1OC (centres unmarked) [CPD-154, 6-((5-((4-((2-(2,6-Dioxopiperidin-3-yl)-1,3-dioxoisoindolin-4-yl)amino)butyl)carbamoyl)pyridin-2-yl)amino)-4-((2-methoxy-3-(1-methyl-1H-1,2,4-triazol-3-yl)phenyl)amino)-N-methylpyridazine-3-carboxamide]	–	B (B: <60% TYK2 degradation, and >20% TYK2 degradation)
CNC(=O)c1nnc(Nc2ccc(CNC(=O)CCCCCCC(=O)N[C@H](C(=O)N3C[C@H](O)C[C@H]3C(=O)N[C@@H](C)c3ccc(-c4scnc4C)cc3)C(C)(C)C)cn2)cc1Nc1cccc(-c2ncn(C)n2)c1OC [CPD-131, N1-((S)-1-((2S,4R)-4-hydroxy-2-(((S)-1-(4-(4-methylthiazol-5-yl)phenyl)ethyl)carbamoyl)pyrrolidin-1-yl)-3,3-dimethyl-1-oxobutan-2-yl)-N8-((6-((5-((2-methoxy-3-(1-methyl-1H-1,2,4-triazol-3-yl)phenyl)amino)-6-(methylcarbamoyl)pyridazin-3-yl)amino)pyridin-3-yl)methyl)octanediamide]	A (A: ≥60% TYK2 degradation)	A (A: ≥60% TYK2 degradation)
CNC(=O)c1nnc(Nc2ccc(CNC(=O)CCCC(=O)N[C@H](C(=O)N3C[C@H](O)C[C@H]3C(=O)N[C@@H](C)c3ccc(-c4scnc4C)cc3)C(C)(C)C)cn2)cc1Nc1cccc(-c2ncn(C)n2)c1OC [CPD-136, N1-((S)-1-((2S,4R)-4-Hydroxy-2-(((S)-1-(4-(4-methylthiazol-5-yl)phenyl)ethyl)carbamoyl)pyrrolidin-1-yl)-3,3-dimethyl-1-oxobutan-2-yl)-N5-((6-((5-((2-methoxy-3-(1-methyl-1H-1,2,4-triazol-3-yl)phenyl)amino)-6-(methylcarbamoyl)pyridazin-3-yl)amino)pyridin-3-yl)methyl)glutaramide]	B (B: <60% TYK2 degradation, and >20% TYK2 degradation)	A (A: ≥60% TYK2 degradation)
CNC(=O)c1nnc(Nc2ccc(C(=O)NCCCCCCNc3cccc4c3C(=O)N(C3CCC(=O)NC3=O)C4=O)cn2)cc1Nc1cccc(-c2ncn(C)n2)c1OC (centres unmarked) [CPD-156, 6-((5-((6-((2-(2,6-Dioxopiperidin-3-yl)-1,3-dioxoisoindolin-4-yl)amino)hexyl)carbamoyl)pyridin-2-yl)amino)-4-((2-methoxy-3-(1-methyl-1H-1,2,4-triazol-3-yl)phenyl)amino)-N-methylpyridazine-3-carboxamide]	–	B (B: <60% TYK2 degradation, and >20% TYK2 degradation)
CNC(=O)c1nnc(Nc2ccc(C(=O)NCCCCNc3ccc4c(c3)C(=O)N(C3CCC(=O)NC3=O)C4=O)cn2)cc1Nc1cccc(-c2ncn(C)n2)c1OC (centres unmarked) [CPD-163, 6-((5-((4-((2-(2,6-dioxopiperidin-3-yl)-1,3-dioxoisoindolin-5-yl)amino)butyl)carbamoyl)pyridin-2-yl)amino)-4-((2-methoxy-3-(1-methyl-1H-1,2,4-triazol-3-yl)phenyl)amino)-N-methylpyridazine-3-carboxamide]	–	C (C: ≤20% TYK2 degradation)

The next lines start with the values.

TYK2 Degradation (NOMO-1, 10 nM)	TYK2 Degradation (NOMO-1, 100 nM)	SMILES
A (A: ≥60% TYK2 degradation)	A (A: ≥60% TYK2 degradation)	CNC(=O)c1nnc(Nc2ccc(C#CC3CCN(C(=O)CCCC(=O)N[C@H](C(=O)N4C[C@H](O)C[C@H]4C(=O)N[C@@H](C)c4ccc(-c5scnc5C)cc4)C(C)(C)C)CC3)cn2)cc1Nc1cccc(-c2ncn(C)n2)c1OC [CPD-134, 6-((5-((1-(5-(((S)-1-((2S,4R)-4-hydroxy-2-(((S)-1-(4-(4-methylthiazol-5-yl)phenyl)ethyl)carbamoyl)pyrrolidin-1-yl)-3,3-dimethyl-1-oxobutan-2-yl)amino)-5-oxopentanoyl)piperidin-4-yl)ethynyl)pyridin-2-yl)amino)-4-((2-methoxy-3-(1-methyl-1H-1,2,4-triazol-3-yl)phenyl)amino)-N-methylpyridazine-3-carboxamide]
C (C: ≤20% TYK2 degradation)	A (A: ≥60% TYK2 degradation)	CNC(=O)c1nnc(Nc2ccc(C(=O)NCC(=O)N[C@H](C(=O)N3C[C@H](O)C[C@H]3C(=O)N[C@@H](C)c3ccc(-c4scnc4C)cc3)C(C)(C)C)cn2)cc1Nc1cccc(-c2ncn(C)n2)c1OC [CPD-137, 6-((5-((2-(((S)-1-((2S,4R)-4-Hydroxy-2-(((S)-1-(4-(4-methylthiazol-5-yl)phenyl)ethyl)carbamoyl)pyrrolidin-1-yl)-3,3-dimethyl-1-oxobutan-2-yl)amino)-2-oxoethyl)carbamoyl)pyridin-2-yl)amino)-4-((2-methoxy-3-(1-methyl-1H-1,2,4-triazol-3-yl)phenyl)amino)-N-methylpyridazine-3-carboxamide]
C (C: ≤20% TYK2 degradation)	A (A: ≥60% TYK2 degradation)	CNC(=O)c1nnc(Nc2ccc(C(=O)NC3CC(CC(=O)N[C@H](C(=O)N4C[C@H](O)C[C@H]4C(=O)N[C@@H](C)c4ccc(-c5scnc5C)cc4)C(C)(C)C)C3)cn2)cc1Nc1cccc(-c2ncn(C)n2)c1OC (stereo partly drawn) [CPD-161, 6-((5-((3-(2-(((S)-1-((2S,4R)-4-hydroxy-2-(((S)-1-(4-(4-methylthiazol-5-yl)phenyl)ethyl)carbamoyl)pyrrolidin-1-yl)-3,3-dimethyl-1-oxobutan-2-yl)amino)-2-oxoethyl)cyclobutyl)carbamoyl)pyridin-2-yl)amino)-4-((2-methoxy-3-(1-methyl-1H-1,2,4-triazol-3-yl)phenyl)amino)-N-methylpyridazine-3-carboxamide]
A (A: ≥60% TYK2 degradation)	A (A: ≥60% TYK2 degradation)	CNC(=O)c1nnc(Nc2ccc(C#CC3CN(C(=O)CCCCCCCC(=O)N[C@H](C(=O)N4C[C@H](O)C[C@H]4C(=O)N[C@@H](C)c4ccc(-c5scnc5C)cc4)C(C)(C)C)C3)cn2)cc1Nc1cccc(-c2ncn(C)n2)c1OC [CPD-126, 6-((5-((1-(9-(((S)-1-((2S,4R)-4-hydroxy-2-(((S)-1-(4-(4-methylthiazol-5-yl)phenyl)ethyl)carbamoyl)pyrrolidin-1-yl)-3,3-dimethyl-1-oxobutan-2-yl)amino)-9-oxononanoyl)azetidin-3-yl)ethynyl)pyridin-2-yl)amino)-4-((2-methoxy-3-(1-methyl-H-1,2,4-triazol-3-yl)phenyl)amino)-N-methylpyridazine-3-carboxamide]
A (A: ≥60% TYK2 degradation)	A (A: ≥60% TYK2 degradation)	CNC(=O)c1nnc(Nc2ccc(C(=O)NCCCNc3ccc4c(c3)C(=O)N(C3CCC(=O)NC3=O)C4=O)cn2)cc1Nc1cccc(-c2ncn(C)n2)c1OC (centres unmarked) [CDD-175, 6-((5-((3-((2-(2,6-dioxopiperidin-3-yl)-1,3-dioxoisoindolin-5-yl)amino)propyl)carbamoyl)pyridin-2-yl)amino)-4-((2-methoxy-3-(1-methyl-1H-1,2,4-triazol-3-yl)phenyl)amino)-N-methylpyridazine-3-carboxamide]

Reference: patent US20240059671A1, “TYROSINE KINASE 2 (TYK2) DEGRADATION COMPOUNDS AND METHODS OF USE” (CULLGEN (SHANGHAI), INC., priority 2020, published 2024)
